How the values were obtained:
[1] = Solubility in aqueous formulation with poloxamer-407 (P-407); assay type: physicochemical
Experimental: Stock samples of solid formulated Fz analogs were prepared using the following protocol. First, P-407 (Pluronic F127) was placed into a screw-cap glass vial. The polymer was then heated to 75 °C in a water bath until melted. Fz analogs dissolved in ethanol were added to the hot polymer, mixing well with a thin spatula. Additional rinses of Fz analogs in ethanol were added to the hot polymer for quantitative transfer. The solvent was then removed under vacuum. This concentrated sample was diluted with water to make a dispensing mixture of 4–9 mM Fz analogs in water. Next, this aqueous stock was aliquoted into glass vials, frozen and lyophilized overnight to give a yellow cake. For i.p. injection into mice, DPBS (Corning, 21-031-CV) was added to the vial and rocked to create a clear solution.

[2] = In vivo substrate pharmacokinetics (plasma and brain); parameters: species or system C57BL/6 mice; details: for concentration at 5 min: male, C57BL/6, mouse, brain, ip, 5 min after i.p. 1.3 µmol, wild-type mice
Experimental: PK measurements were performed at Shanghai ChemPartner for Fz and compound 6 in 6- to 8-week-old overnight-fasted male C57BL/6 mice. Fz and compound 6 were formulated as clear solutions in 10% ethanol, 10% glycerol, 10% hydroxypropyl-β-cyclodextrin (Sigma-Aldrich), 35% PEG-300 and 35% water. Freshly prepared injectable doses (i.p., 20 mg per kg body weight for Fz and 21.6 mg per kg body weight for compound 6) were administered at 20 ml kg^–1. Each of the two measurement series consisted of four mice and two time points (series 1, predose and 0.083 h; series 2, 0.083 h and 0.167 h).
At each time point, ~90 µl of blood was collected into a K2EDTA tube via facial vein bleeding. Plasma samples were put on ice and centrifuged to obtain plasma samples (2,000g for 5 min at 4 °C) within 15 min of collection. The plasma samples were stored at –70 °C until analysis. For analysis, 20 µl of plasma sample was added to 20 µl of stabilizer (80:20 (vol:vol) mixture of 200 mg ml^–1 EDTA and 100 mM L-ascorbic acid in water).
At the terminal point of each series, a midline incision was made in the animal’s scalp, and the skin was retracted. The skull overlying the brain was removed. The whole brain was collected, rinsed with cold saline, dried on filtrate paper, weighed and snap-frozen by placing it into dry ice. No abnormal symptoms were observed during the studies. The brain samples were homogenized with 4 ml of stabilizer (80:20 (vol:vol) mixture of 200 mg ml^–1 EDTA and 100 mM L-ascorbic acid in water) per gram of tissue. The above samples (plasma or brain) were mixed with 120 µl of internal standard (Glipizide, 100 ng ml^–1) in acetonitrile. […] Compound concentrations were quantified using LC–MS/MS detection. […]
PK parameters were determined by the non-compartmental model of the non-compartmental analysis tool, Pharsight Phoenix WinNonlin 8.2 software. […] When the number of detected time points after Tmax was less than 3, the terminal half-life and the area under the plasma concentration-time curve from zero to infinity were not calculated.

[3] = target: Antares (Oplophorus gracilirostris, UniProt Q9GV45, A31E/A60N/A81I/F95D/I117V/K70R/L54V/L99Q/M102K/N193R/P142E/Q151K/Q38R/Q45L/V71I/Y165I); experiment: Enzymatic analysis of Antares and Fz analogs; assay type: biochemical; parameters: His tag (inferred from purification on HisLink resin); made in house; host or cells: Escherichia coli; details: for Relative kcat: relative to Fz
Experimental: Two milliliters of LB broth with 100 µg ml^–1 ampicillin was inoculated with a single colony of clone ATG-3802 (Antares codon optimized for Escherichia coli) and grown overnight at 37 °C. On the following day, the overnight culture was diluted 1:100 into a flask containing 50 ml of Terrific Broth and 100 µg ml^–1 ampicillin. The sample was grown at 37 °C with shaking (275 r.p.m.) for 4 h. The culture was chilled on ice, and 1% rhamnose was added to induce protein expression. The culture was placed in a 15 °C shaker (275 r.p.m.) and grown for 48 h. Cells were collected by centrifugation and resuspended in 10 ml of 100 mM HEPES (pH 7.5), 150 mM NaCl, 10 mM imidazole and 1 mg ml^–1 lysozyme. The resuspended cells were sonicated on ice (5 s on, 5 s off for 2 min, 12 amplitude). The sample was centrifuged (12,000g for 15 min), and 1 ml of HisLink resin (Promega) was added to the cleared lysate. Samples were incubated at 4 °C on an orbital mixer for 2 h. After incubation, the resin was washed three times with HisLink wash buffer (Promega). After the final wash, the sample was eluted (incubated 3 min with mixing) two times with 1 ml of HisLink elution buffer (Promega). The sample was dialyzed (10-kDa molecular weight cutoff, Thermo Fisher Slide-A-Lyzer) for 24 h in TBS and 50% glycerol.
To quantify luminescence as a function of substrate concentration, substrates were diluted to 30 μM and serially diluted in twofold steps into DPBS with 0.01% BSA in triplicate. Fifty microliters of each substrate dilution was then mixed with 50 μl of a solution of 20 pM Antares protein in DPBS with 0.01% BSA. Luminescence was measured immediately using a GloMax-Multi+ luminometer (Promega). Km and Vmax were then calculated using the Michaelis–Menten non-linear regression function in the program Prism (GraphPad).

Antares, sequence (Q9GV45 other isoform, or with tags, fused parts or gaps with the stated changes): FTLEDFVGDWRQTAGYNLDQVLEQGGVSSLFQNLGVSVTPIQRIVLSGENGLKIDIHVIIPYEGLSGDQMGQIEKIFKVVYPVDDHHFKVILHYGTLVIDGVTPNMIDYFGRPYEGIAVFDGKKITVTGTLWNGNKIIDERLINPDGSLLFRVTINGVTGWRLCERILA

Structure (SMILES)	solubility of 1.3 μmol in P-407 formulation ([1]; 1.3 μmol)	concentration at 5 min [2]	Km [3]	Relative kcat [3]	solubilization of 4.2 µmol in P-407 formulation ([1]; 4.2 µmol)	bioavailability from plasma concentrations ([2]; i.p. 1.3 µmol, plasma at 5 and 10 min, vs Fz)
O=c1c(Cc2ccco2)nc2c(Cc3ccccc3)[nH]c(-c3ccccc3)cn1-2 [Fz, furimazine, reference compound]	not soluble in P-407	1100 nM	0.38 µM	1.0	–	–
O=c1c(Cc2ccco2)nc2c(Cc3ccccc3)[nH]c(-c3cccc(F)c3F)cn1-2 [compound 6, cephalofurimazine]	–	1400 nM	0.47 µM	1.33	a small amount of CFz residue already remained with 20 mg of P-407 but not 30 mg	improved bioavailability after i.p. injection

Reference: PMC10229426, “An optimized bioluminescent substrate for non-invasive imaging in the brain” (Nature Chemical Biology, 2023)
